In assay [1] the test system is MDA-MB-231 breast cancer cells. In words: MTT cytotoxicity assay, MDA-MB-231. The following applies: Homo sapiens, MDA-MB-231; MTT, 72 h, n = 3; read-out: IC50 MDA-MB-231 (Breast). It is filed as cell-based. The protocol: (§1) The synthesized derivatives were screened for their cytotoxic activities against five cancer cell lines (two breast cancer cell lines: MCF-7 and MDA-MB-231, two ovarian cancer cell lines: A2780 and KF-28, and one cervical cancer cell line: Hela). This study was performed using serial concentrations of 25, 50, 100, 150, and 200 µM of each compound using the MTT assay. Percentages of cell viability of the tested compounds with serial concentration against the tested panel of cell lines are depicted in Figure 1, in which there is a decrease in the cell viability with increasing concentrations in a dose–response pattern. […] Therefore, compounds 5a, 5b, and 5f were thought worthwhile to further investigate their effects as either cytotoxic or antiproliferative effects and whether any of them is an inducer of apoptotic cell death in the representative cancer cell lines KF-28 and A2780.
(§2) The human ovarian serous carcinoma cell line KF-28 was kindly provided by Prof. Yoshihiro Kikuchi (Department of Obstetrics and Gynecology, National Defense Medical College, Saitama, Japan), and A2780 cell line was purchased from the ECACC (ECACC 93112519). The cells were maintained in RPMI-1640 (Sigma-Aldrich, United States). The cervical cancer cell line, Hela cells, breast cancer cell line, MCF-7, and MDA-MB-231 were purchased from the ATCC and cultured in DMEM. Both types of media were supplemented with 2 mM L-glutamine (Lonza, Belgium), 10% FBS (Sigma, St. Louis, MO, United States), and 1% penicillin/streptomycin (Lonza, Belgium). All cells were incubated at 37°C in 5% CO2 atmosphere (NuAire). All cancer cell lines were cultured according to the routine tissue culture work as discussed by the Freshney group ([Freshney, 2010]). The cells were plated at a density of 5,000 cells in triplicates in a 96-well plate. On the next day, the cells were treated with the indicated compound(s) at the indicated concentrations in a final volume of 100 μL media. Cell viability was assessed after 72 h using MTT solution (Promega) ([Mosmann, 1983]). 20 μL of the reagent was added to each well, the plate was incubated for 3 h, […] was subsequently measured (570 nm) using a plate reader, and then the IC50 values were calculated using Excel ([Tantawy et al., 2020]).
(Formazan colour is commonly taken as a measure of viable cells.)

Assay [2] concerns MEF normal mouse embryonic fibroblast. In words: MTT cytotoxicity assay, MEF. It is filed as cell-based. The following applies: n = 3.
A further assay relates to C-myc in KF-28 cells. In words: Western blot of C-myc expression. Conditions: two days, vs DMSO. It counts as cell-based, human. The source says: Pim-1 has been classified as a weak oncogene. However, a very strong synergism with regard to tumorigenicity occurs between Pim-1 and C-myc. This synergism is observed with bitransgenic mice overexpressing C-myc and Pim-1 in lymphoid tissue ([Möröy et al., 1991]). To further validate the simulation and docking data which introduced Pim-1 kinase as a potential target molecule for some of the tested compounds, we decided to check the effect of treatment with the selected compounds on the C-myc protein expression as a downstream target molecule known to be phosphorylated and stabilized by Pim-1 as a kinase ([Zhang et al., 2008]). […] Taking into consideration the fact that Pim-1 phosphorylates C-myc and controls its stability ([Zhang et al., 2008]) may conclude that the reduction of C-myc expression under the indicated compounds is due to the inhibition of Pim-1 activity (Figure 3). Therefore, the speculated inhibition of Pim-1 is supported by the above-mentioned qPCR data (Figure 3) and further supported by C-myc downregulation. Our results agree with the reported one which states that some thiazole derivatives are potent inhibitors against protein kinases including Pim-1 kinase ([Mohareb et al., 2019]).
Cell lysates were prepared by lysing cells in RIPA buffer (10 mM Tris (pH 7.4), 150 mM NaCl, 1% Triton X-100, 1% Na deoxycholate), supplemented with protease inhibitor cocktail (Sigma). Protein concentration of whole cell lysates was determined by the […] using the BSA kit (Pierce), and then equal protein amounts were heated to 95 °C for 5 min with sodium dodecyl sulfate (SDS) sample buffer (25 ml glycerol, 31.2 ml Tris buffer, 7.5 ml SDS, a dash of bromophenol blue/100 ml) and run on 15% SDS polyacrylamide gel electrophoresis (SDS-PAGE). Protein samples were then blotted onto PVDF membranes (Immobilon P, Watford, United Kingdom). The membranes were incubated in blocking solution (5% non-fat milk in PBS) for 1 h and then in primary antibody (anti-human C-myc pAb (Abcam; at dilution of 2:1,000) or GAPDH mAb (Santa Cruz; at dilution of 20:1,000)) overnight. After 3 × 10 min washes in TBS (0.1% Tween-20 in PBS), the membrane was incubated for 1 h at room temperature with horseradish-peroxidase–linked (HRP) secondary anti-rabbit or anti-mouse Ab (1:1,000 dilution in PBS). Signals on the membrane were developed using ECL reagent (Amersham, CA, United States) and then were imaged with the Chemidoc system (Bio-Rad, United States).

For assay [3], the system named is Hela cervical cancer cells. In words: MTT cytotoxicity assay, Hela. Conditions: Homo sapiens, MTT, 72 h, n = 3, read-out: IC50 Hela (Cervical). It is filed as cell-based. The procedure:
as §1, §2

Entries after “also recorded” stand apart in the source; their conditions may differ. Bounds are passed on as bounds.

What is called IC50 is the concentration needed to halve the response being measured.

Regarding `Cc1[nH]c(=NN=C2CCC(=NN=c3[nH]c(C)c(N=Nc4ccc(Cl)cc4)s3)CC2)sc1N=Nc1ccc(Cl)cc1` [5c, 1,4-Bis((5-(4-chlorophenylazo)-4-methylthiazol-2-ylidene)hydrazono)cyclohexane], the IC50 in assay [1] is 116 µM; in assay [2] it was greater than 200 µM; in assay [3], less than 25 µM. Besides, in the assay on C-myc in KF-28 cells, the “C-myc protein expression (Western blot)” value was “observable downregulation; also recorded: Appreciated downregulation”.

The values above are taken from paper PMC8397418, “Novel Bis-Thiazole Derivatives: Synthesis and Potential Cytotoxic Activity Through Apoptosis With Molecular Docking Approaches” (Frontiers in Chemistry, 2021).
